Data from ChEMBL document CHEMBL5143755, “Restoration of Motor Function Post-Neurological Injury Using Serotonergic Agonist” (ACS Med Chem Lett, 2022).

Target: 5-hydroxytryptamine receptor 2A (Homo sapiens, UniProt P28223)
Assay: Agonist activity at human 5-HT2A receptor assessed as activation of calcium mobilization incubated for 2 mins by Calcium-6 dye based FLIPR assay
Format: functional

5-hydroxytryptamine receptor 2A, sequence (P28223 whole entry): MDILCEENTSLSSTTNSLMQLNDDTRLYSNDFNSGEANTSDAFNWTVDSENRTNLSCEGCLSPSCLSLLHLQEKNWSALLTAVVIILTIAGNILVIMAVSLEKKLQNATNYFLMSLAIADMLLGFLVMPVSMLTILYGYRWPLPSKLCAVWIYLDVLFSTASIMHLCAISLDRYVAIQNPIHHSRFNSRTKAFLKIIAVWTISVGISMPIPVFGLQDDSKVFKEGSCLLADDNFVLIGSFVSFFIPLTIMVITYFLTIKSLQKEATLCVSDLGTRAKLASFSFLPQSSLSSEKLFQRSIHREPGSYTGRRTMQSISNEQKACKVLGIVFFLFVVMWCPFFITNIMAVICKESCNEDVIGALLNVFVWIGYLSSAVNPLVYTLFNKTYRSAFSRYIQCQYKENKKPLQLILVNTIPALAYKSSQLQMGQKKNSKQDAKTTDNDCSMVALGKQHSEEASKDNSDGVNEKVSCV

SMILES | EC50 [nM]
[2H]C1([2H])CC(c2c[nH]c3cccc(O)c23)C([2H])([2H])N1 (stereo not given) | > 10000
[2H]C([2H])N1CCC(c2c[nH]c3cccc(O)c23)C1 (stereo not given) | < 1000
[2H]C1([2H])CC(c2c[nH]c3cccc(OCc4ccccc4)c23)C([2H])([2H])N1C (stereo not given) | > 10000
[2H]C1([2H])CC(c2c[nH]c3cccc(OCc4ccccc4)c23)C([2H])([2H])N1 (stereo not given) | < 1000
[2H]C1([2H])CC(c2c[nH]c3cccc(O)c23)C([2H])([2H])N1C (stereo not given) | < 1000
